Key:
Assay type in all cases: cell-based
[1] = system: CDK4/6; experiment: Characterization of CDK4/6 degraders/disruptors in various breast cancer and melanoma cells (summary, Examples 12 and 13)
Protocol: Specific exemplary abemaciclib-, ribociclib-, and palbociclib-based CDK4/6 degraders/disruptors were characterized in various different breast cancer and melanoma cells (Examples 12 and 13, FIGS. 10-23). […] This efficacy in suppressing CDK4/6 expression and CDK4/6 activity correlated with efficacy in inhibiting cancer cell proliferation.
(§1) Protein concentrations were determined by BCA from cell lysates and equal amounts of protein are loaded to a Bis-Tris 4-12% gel. Gels were run at 80 V for 4 h using 1× running buffer (25 mM Tris, pH 8.3, […] glycine, 0.1% SDS). Proteins were transferred to a nitrocellulose membrane for 2 h at 100 V using transfer buffer (25 mM Tris, pH 8.3, […] glycine, 20% methanol). Ponceau S staining (0.1% Ponceau S, 1% acetic acid) was used to confirm transfer of proteins to the membrane followed by blocking of the membrane for 30 min at room temperature using blocking buffer (5% dry nonfat milk, 0.1% Tween, 0.02% sodium azide in TBS). The blocked membrane is incubated with primary antibodies (1:1000 dilution) in blocking buffer at 4° C. overnight. When primary phosphor-antibodies were used, then the membrane is incubated with 5% BSA instead of milk. The membrane was washed three times, 10 min each, with wash buffer (0.1% Tween in TBS) followed by incubation with secondary HRP conjugated antibody (1:5000 dilution) in 2.5% dry nonfat milk, 0.1% Tween in TBS for 1 h at room temperature. The membrane was washed three times, 10 min each, with wash buffer (0.1% Tween in TBS). Membranes are incubated with ECL for 1 min and proteins are detected after exposure to a blue autoradiographic film.

[2] = system: CDK4/6; experiment: Western blot of CDK4, CDK6 and phospho-Rb in A375 melanoma cells treated with degraders (Example 12, FIGS. 12, 13, 16, 18); conditions: 1 or 3 μM, 24 h
Protocol: (§2) Breast cancer cell lines (MCF7, T47D, and ZR-75-1) and melanoma cell lines (A375, SK-MEL-2, SK-MEL-30, and WM1382) were cultured in the presence of DMEM or RPMI supplemented with 10% FBS in the presence of penicillin and streptomycin.
as §1
A375 melanoma cells (FIG. 13) were treated with 1 or 3 μM Ribociclib (RB), YX030-126, YX030-108, YX030-107, YX030-086, YX030-085 or XY028-133 for 24 h, then lysed and immunoblotted with antibodies to CDK4, CDK6, cyclin A, PLK1, phospho-Rb (pRb), and actin.
A375 melanoma cells (FIG. 16, panel A) were treated with 0.3 or 1 μM XY028-140, YX039-65, YX039-48, YX039-123, YX039-56, YX039-124 or YX039-147 for 24 h. A375 melanoma cells were treated with 1 or 3 μM XY028-140, YX039-56, YX039-65 or XY028-133 (FIG. 16, panel B). Cells were lysed and immunoblotted with antibodies to phospho-Rb (pRb), total Rb, PLK1, cyclin A, CDK4, CDK6, and actin.
A375 melanoma cells (FIG. 18) were treated with 1 or 3 μM XY028-133, YX044-18, YX044-22, XY028-140, YX044-19 or YX044-38 for 24 h, then lysed and immunoblotted with antibodies to phospho-Rb (pRb), total Rb, PLK1, cyclin A, CDK4, CDK6, and actin.

[3] = system: T47D breast cancer cells; experiment: Crystal violet staining (clonogenic assay) of T47D breast cancer cells (Example 13, FIGS. 22, 23); conditions: 11 days
Protocol: Cells were cultured for 7-11 days in the presence of different compounds. Media with compound was replenished every two days. At the end of the experiment, media was aspirated and viable cells were stained with 0.5% crystal violet dye.

[4] = system: CDK4/6; experiment: Western blot of CDK4/6 and phospho-Rb in T47D breast cancer cells treated with degraders (Example 12, FIGS. 10 B, 17, 19); conditions: 0.3 or 1 μM, 24 h
Protocol: as §2, §1
MCF7 breast cancer cells were treated with 1 or 5 μM XY019-095, XY019-098, XY019-0100, XY019-105A, XY019-105B, XY019-106, or XY019-108 for 24 h, then lysed and immunoblotted with antibodies to CDK4, CDK6, and actin (FIG. 10, panel A). […] T47D breast cancer cells were treated with 0.1, 0.3, 1, 3, 10, or 30 μM XY019-106 for 24 h, then lysed and immunoblotted with antibodies to phospho-Rb (pRB), CDK4, and actin (FIG. 10, panel B).
T47D breast cancer cells (FIG. 17) were treated with 0.3 or 1 μM XY028-140, YX039-48, YX039-123, YX039-56, YX039-124, YX039-65, YX039-147 or YX039-74 for 24 h, then lysed and immunoblotted with antibodies to phospho-Rb (pRb), total Rb, PLK1, cyclin A, CDK4, CDK6, and actin.
T47D breast cancer cells (FIG. 19) were treated with 0.3 or 1 μM XY028-133, YX044-18, YX044-22, XY028-140, YX044-19 or YX044-38 for 24 h, then lysed and immunoblotted with antibodies to phospho-Rb (pRb), total Rb, PLK1, cyclin A, CDK4, CDK6, and actin.

Compound | suppression of both CDK4/6 expression and CDK4/6 activity (summary) [1] | further results
CC(=O)c1c(C)c2cnc(Nc3ccc(N4CCN(C(=O)CCc5cccc6c5C(=O)N(C5CCC(=O)NC5=O)C6=O)CC4)cn3)nc2n(C2CCCC2)c1=O (centres unmarked) [YX039-147, 4-(3-(4-(6-((6-acetyl-8-cyclopentyl-5-methyl-7-oxo-7,8-dihydropyrido[2,3-d]pyrimidin-2-yl)amino)pyridin-3-yl)piperazin-1-yl)-3-oxopropyl)-2-(2,6-dioxopiperidin-3-yl)isoindoline-1,3-dione] | especially effective in suppressing both CDK4/6 expression and CDK4/6 activity | –
CC(=O)c1c(C)c2cnc(Nc3ccc(N4CCCN(C(=O)CCCCCC(=O)N[C@H](C(=O)N5C[C@H](O)C[C@H]5C(=O)NCc5ccc(-c6scnc6C)cc5)C(C)(C)C)CC4)cn3)nc2n(C2CCCC2)c1=O [YX044-18, (2S,4R)-1-((S)-2-(7-(4-(6-((6-acetyl-8-cyclopentyl-5-methyl-7-oxo-7,8-dihydropyrido[2,3-d]pyrimidin-2-yl)amino)pyridin-3-yl)-1,4-diazepan-1-yl)-7-oxoheptanamido)-3,3-dimethylbutanoyl)-4-hydroxy-N-(4-(4-methylthiazol-5-yl)benzyl)pyrrolidine-2-carboxamide] | – | efficacy in inhibiting both CDK4/6 expression and CDK4/6 activity (decreased Rb phosphorylation) [2]: efficacy of CDK4/6 degraders, particularly XY028-133 and YX044-18
CC(=O)c1c(C)c2cnc(Nc3ccc(N4CCN(C(=O)CCCCCCNc5cccc6c5C(=O)N(C5CCC(=O)NC5=O)C6=O)CC4)cn3)nc2n(C2CCCC2)c1=O (centres unmarked) [XY028-144, 4-((7-(4-(6-((6-acetyl-8-cyclopentyl-5-methyl-7-oxo-7,8-dihydropyrido[2,3-d]pyrimidin-2-yl)amino)pyridin-3-yl)piperazin-1-yl)-7-oxoheptyl)amino)-2-(2,6-dioxopiperidin-3-yl)isoindoline-1,3-dione] | especially effective in suppressing both CDK4/6 expression and CDK4/6 activity | –
CC(=O)c1c(C)c2cnc(Nc3ccc(N4CCN(C(=O)CCc5cccc6c5C(=O)N(C5CCC(=O)NC5=O)C6)CC4)cn3)nc2n(C2CCCC2)c1=O (centres unmarked) [YX039-56, 3-(7-(3-(4-(6-((6-acetyl-8-cyclopentyl-5-methyl-7-oxo-7,8-dihydropyrido[2,3-d]pyrimidin-2-yl)amino)pyridin-3-yl)piperazin-1-yl)-3-oxopropyl)-1-oxoisoindolin-2-yl)piperidine-2,6-dione] | especially effective in suppressing both CDK4/6 expression and CDK4/6 activity | inhibition of cancer cell proliferation compared with palbociclib (crystal violet staining) ([3]; 0.003, 0.01 or 0.03 μM): inhibited cancer cell proliferation more effective that palbociclib at the same concentration; inhibition of cancer cell proliferation compared with palbociclib (crystal violet staining) ([3]; 0.03, 0.1, 0.3, 1 or 3 μM): inhibited cancer cell proliferation more effective that palbociclib at the same concentration
CC(=O)c1c(C)c2cnc(Nc3ccc(N4CCN(C(=O)COc5cccc6c5C(=O)N(C5CCC(=O)NC5=O)C6=O)CC4)cn3)nc2n(C2CCCC2)c1=O (centres unmarked) [YX039-48, 4-(2-(4-(6-((6-acetyl-8-cyclopentyl-5-methyl-7-oxo-7,8-dihydropyrido[2,3-d]pyrimidin-2-yl)amino)pyridin-3-yl)piperazin-1-yl)-2-oxoethoxy)-2-(2,6-dioxopiperidin-3-yl)isoindoline-1,3-dione] | especially effective in suppressing both CDK4/6 expression and CDK4/6 activity | –
CC(=O)c1c(C)c2cnc(Nc3ccc(N4CCN(C(=O)CCCCCC(=O)N[C@H](C(=O)N5C[C@H](O)C[C@H]5C(=O)N[C@@H](C)c5ccc(-c6scnc6C)cc5)C(C)(C)C)CC4)cn3)nc2n(C2CCCC2)c1=O [YX044-22, (2S,4R)-1-((S)-2-(7-(4-(6-((6-acetyl-8-cyclopentyl-5-methyl-7-oxo-7,8-dihydropyrido[2,3-d]pyrimidin-2-yl)amino)pyridin-3-yl)piperazin-1-yl)-7-oxoheptanamido)-3,3-dimethylbutanoyl)-4-hydroxy-N-((S)-1-(4-(4-methylthiazol-5-yl)phenyl)ethyl)pyrrolidine-2-carboxamide] | – | efficacy in inhibiting both CDK4/6 expression and CDK4/6 activity (decreased Rb phosphorylation) [4]: efficacy of CDK4/6 degraders, particularly XY028-140 and YX044-22 and YX044-19
CC(=O)c1c(C)c2cnc(Nc3ccc(N4CCN(C(=O)CCCCC(=O)N[C@H](C(=O)N5C[C@H](O)C[C@H]5C(=O)NCc5ccc(-c6scnc6C)cc5)C(C)(C)C)CC4)cn3)nc2n(C2CCCC2)c1=O [XY028-132, (2S,4R)-1-((S)-2-(6-(4-(6-((6-acetyl-8-cyclopentyl-5-methyl-7-oxo-7,8-dihydropyrido[2,3-d]pyrimidin-2-yl)amino)pyridin-3-yl)piperazin-1-yl)-6-oxohexanamido)-3,3-dimethylbutanoyl)-4-hydroxy-N-(4-(4-methylthiazol-5-yl)benzyl)pyrrolidine-2-carboxamide] | especially effective in suppressing both CDK4/6 expression and CDK4/6 activity | –
Cc1nc2c(F)cc(-c3nc(Nc4ccc(CN5CCN(C(=O)CCCCCCC(=O)Nc6cccc7c6C(=O)N(C6CCC(=O)NC6=O)C7=O)CC5)cn4)ncc3F)cc2n1C(C)C (centres unmarked) [YX26-66, N-(2-(2,6-dioxopiperidin-3-yl)-1,3-dioxoisoindolin-4-yl)-8-(4-((6-((5-fluoro-4-(4-fluoro-1-isopropyl-2-methyl-1H-benzo[d]imidazol-6-yl)pyrimidin-2-yl)amino)pyridin-3-yl)methyl)piperazin-1-yl)-8-oxooctanamide] | especially effective in suppressing both CDK4/6 expression and CDK4/6 activity | –
CC(=O)c1c(C)c2cnc(Nc3ccc(N4CCN(C(=O)CCc5cccc6c5CN(C5CCC(=O)NC5=O)C6=O)CC4)cn3)nc2n(C2CCCC2)c1=O (centres unmarked) [YX039-124, 3-(4-(3-(4-(6-((6-acetyl-8-cyclopentyl-5-methyl-7-oxo-7,8-dihydropyrido[2,3-d]pyrimidin-2-yl)amino)pyridin-3-yl)piperazin-1-yl)-3-oxopropyl)-1-oxoisoindolin-2-yl)piperidine-2,6-dione] | especially effective in suppressing both CDK4/6 expression and CDK4/6 activity | –
CC(=O)c1c(C)c2cnc(Nc3ccc(N4CCN(C(=O)CNc5cccc6c5CN(C5CCC(=O)NC5=O)C6=O)CC4)cn3)nc2n(C2CCCC2)c1=O (centres unmarked) [YX039-65, 3-(4-((2-(4-(6-((6-acetyl-8-cyclopentyl-5-methyl-7-oxo-7,8-dihydropyrido[2,3-d]pyrimidin-2-yl)amino)pyridin-3-yl)piperazin-1-yl)-2-oxoethyl)amino)-1-oxoisoindolin-2-yl)piperidine-2,6-dione] | especially effective in suppressing both CDK4/6 expression and CDK4/6 activity | inhibition of cancer cell proliferation compared with palbociclib (crystal violet staining) ([3]; 0.003, 0.01 or 0.03 μM): inhibited cancer cell proliferation more effective that palbociclib at the same concentration; inhibition of cancer cell proliferation compared with palbociclib (crystal violet staining) ([3]; 0.03, 0.1, 0.3, 1 or 3 μM): inhibited cancer cell proliferation more effective that palbociclib at the same concentration
